Test results published in US4230698A, “2-Substituted arabinofuranosyl nucleosides and nucleotides” (Research Corporation, priority 1978, dated 1980).

Columns and labels:
HeLa = experiment: In vitro cytotoxicity testing (growth inhibition, Trypan Blue exclusion), HeLa; format: cell-based; conditions: Homo sapiens, 40 hr, 37 degrees C, read-out: Concentration for 50% Inhibition of Growth
Procedure: (§1) Cytarazid, the β-anomer of the nucleoside prepared in Example 3 herein, and cytaramin, the nucleoside prepared in Example 4 herein, are evaluated in vitro for growth inhibiting potency against mammalian cancer cells by a micro technique, using the culture conditions described by Bobek et al. in J. Med. Chem., vol. 20, p. 458 (1977), whereby 0.5 ml. aliquots of medium (RPMI 1640.div.10% fetal calf serum) containing the test compound are introduced into 16×125 mm. screw cap culture tubes, followed by 0.5 ml. portions of the medium containing 1×10^5 mammalian cancer cells. The cultures are incubated at 37 degrees C. for 40 hr., after which time the viable cells are counted by Trypan Blue exclusion. During this time the cell number in the controls increases about four to nine-fold with an average cell viability of 99%. The test results are as follows:
(§2) Concentration for 50% Inhibition of Growth
(§3) Cell Line Cytarazid Cytaramin

L-1210 = experiment: In vitro cytotoxicity testing (growth inhibition, Trypan Blue exclusion), L-1210; format: cell-based; conditions: Mus musculus, L1210, 40 hr, 37 degrees C, read-out: Concentration for 50% Inhibition of Growth
Procedure: as §1, §2, §3

L-1210 leukemic cells = experiment: In vivo cytotoxicity testing, survival of mice inoculated with L-1210 leukemic cells; set-up: species or system DBA/2 HaDD mice; conditions: control 8.7 days
Procedure: Cytarazid and cytaramin are evaluated in vivo for growth inhibitory potency against leukemic cells by intraperitoneally inoculating DBA/2 HaDD mice with an IP-PBS saline suspension of 1×10^6 L-1210 leukemic cells, waiting 24 hrs., and then administering the test compound intraperitoneally in 0.2 ml. of saline-phospate buffer solution (pH 7.0).

CR-CdR deaminase = experiment: in vitro
Procedure: (§4) Partially purified CR-CdR deaminase is prepared from two different sources: (1) human liver, following the procedure of Wentworth and Wolfender, Biochemistry, vol. 14, p. 5099 (1975), and (2) blast cells of patients with acute myelocytic leukemia, using ammonium sulfate fractionation and DEAE column chromatography. The assay procedure is described by Wentworth and Wolfander, ibid.

[1] = system: Herpes Simplex type I virus; experiment: In vitro antiviral testing, plaque reduction, Herpes Simplex type I; format: cell-based; conditions: for antiviral properties: plaque reduction
Source text: (§5) Cytarazid and cytaramin, when tested in vitro against Herpes Simplex types I and II viruses, utilizing the plaque reduction technique described by Dulbecco, Proceedings National Academy of Sciences, vol. 38, p.

[2] = system: Herpes Simplex type II virus; experiment: In vitro antiviral testing, plaque reduction, Herpes Simplex type II; format: cell-based; conditions: for antiviral properties: plaque reduction
Source text: as §5

[3] = system: Molt 4F (T-type from lymphoblastic leukemia); experiment: In vitro cytotoxicity testing (growth inhibition, Trypan Blue exclusion), Molt 4F; format: cell-based; conditions: Homo sapiens, 40 hr, 37 degrees C, read-out: Concentration for 50% Inhibition of Growth
Procedure: as §1, §2, §3

in vitro = conditions: human, cr-cdr deaminase
Procedure: as §4

[4] = 50 μM, read-out: inhibition of the virus (log)

SMILES	IC50 (HeLa)	IC50 (L-1210)	Survival Time (L-1210 leukemic cells; 75 mg/kg IP twice per day 8 hrs apart for 2 days beginning 24 hrs after tumor inoculation)	deamination detected in 8 hrs (CR-CdR deaminase)	antiviral properties [1]	antiviral properties [2]	IC50 [3]	Survival Time (L-1210 leukemic cells; 40 mg/kg IP twice per day 8 hrs apart for 2 days beginning 24 hrs after tumor inoculation)	inhibition at 50 µM ([1]; 50 μM)	log reduction at 50 µM [1, 4]	inhibition at 50 µM ([2]; 50 μM)	log reduction at 50 µM [2, 4]	half-life (in vitro)
Nc1ccn([C@@H]2O[C@H](CO)[C@@H](O)[C@@H]2N)c(=O)n1 [Cytaramin, 1-(2-amino-2-deoxy-β-D-arabinofuranosyl) cytosine]	30000 nM	4000 nM	> 120 days	no significant deamination	significant antiviral properties	significant antiviral properties							
[N-]=[N+]=N[C@H]1[C@H](O)[C@@H](CO)O[C@H]1n1ccc(N)nc1=O [Cytarazid, 1-(2-azido-2-deoxy-β-D-arabinofuranosyl) cytosine]	200 nM	600 nM		no significant deamination	significant antiviral properties	significant antiviral properties	70 nM	> 120 days	> 99.9%	> 3	> 99%	> 2	
Nc1ccn([C@@H]2O[C@H](CO)[C@@H](O)[C@@H]2O)c(=O)n1 [cytarabine, reference compound]													45 min
